Source: the NIST ThermoML archive (doi:10.1021/je0501639)

Legend:
[1] = xn = mol fraction of the nth substance listed; conditions: 100.8 kPa, Liquid
[2] = refractive index (Na D-line) (dimensionless); xn = mol fraction of the nth substance listed; conditions: 100.8 kPa, Liquid, Standard Abbe refractometry

CC(C)CC(C)(C)C [2,2,4-trimethylpentane] + CCO
Conditions	mass density, 298.15 K [kg/m3]	mass density, 308.15 K [kg/m3]	mass density, 318.15 K [kg/m3]	refractive index, 298.15 K	refractive index, 308.15 K	refractive index, 318.15 K	viscosity, 298.15 K [mPa·s]	viscosity, 308.15 K [mPa·s]	viscosity, 318.15 K [mPa·s]
[1], x2 = 0	687.89	679.55	671.1	–	–	–	0.474	0.425	0.38
[1], x2 = 0.05	688.94	680.44	671.89	–	–	–	0.472	0.421	0.376
[1], x2 = 0.1	690.43	681.85	673.2	–	–	–	0.47	0.419	0.377
[1], x2 = 0.15	692.16	683.55	674.81	–	–	–	0.476	0.423	0.378
[1], x2 = 0.2	694.08	685.46	676.67	–	–	–	0.485	0.428	0.381
[1], x2 = 0.25	696.22	687.59	678.74	–	–	–	0.494	0.435	0.387
[1], x2 = 0.3	698.58	689.91	681.05	–	–	–	0.506	0.443	0.392
[1], x2 = 0.35	701.19	692.48	683.6	–	–	–	0.52	0.453	0.401
[1], x2 = 0.4	704.04	695.33	686.41	–	–	–	0.538	0.469	0.413
[1], x2 = 0.45	707.19	698.47	689.53	–	–	–	0.558	0.487	0.426
[1], x2 = 0.5	710.69	701.95	693	–	–	–	0.583	0.507	0.443
[1], x2 = 0.55	714.59	705.81	696.87	–	–	–	0.611	0.53	0.461
[1], x2 = 0.6	718.95	710.14	701.18	–	–	–	0.642	0.555	0.483
[1], x2 = 0.65	723.82	714.99	706	–	–	–	0.675	0.583	0.505
[1], x2 = 0.7	729.34	720.46	711.43	–	–	–	0.71	0.614	0.528
[1], x2 = 0.75	735.56	726.64	717.6	–	–	–	0.75	0.647	0.557
[1], x2 = 0.8	742.67	733.71	724.66	–	–	–	0.797	0.685	0.589
[1], x2 = 0.85	750.87	741.88	732.81	–	–	–	0.853	0.731	0.626
[1], x2 = 0.9	760.47	751.45	742.33	–	–	–	0.916	0.784	0.668
[1], x2 = 0.95	771.78	762.83	753.76	–	–	–	0.989	0.843	0.712
[2], x2 = 0	–	–	–	1.38898	1.38398	1.37898	–	–	–
[2], x2 = 0.05	–	–	–	1.38825	1.38325	1.37815	–	–	–
[2], x2 = 0.1	–	–	–	1.38749	1.38247	1.37738	–	–	–
[2], x2 = 0.15	–	–	–	1.38668	1.38169	1.37662	–	–	–
[2], x2 = 0.2	–	–	–	1.38586	1.38087	1.37584	–	–	–
[2], x2 = 0.25	–	–	–	1.38499	1.38002	1.37503	–	–	–
[2], x2 = 0.3	–	–	–	1.38408	1.37913	1.37417	–	–	–
[2], x2 = 0.35	–	–	–	1.38311	1.37819	1.37326	–	–	–
[2], x2 = 0.4	–	–	–	1.38208	1.37719	1.37229	–	–	–
[2], x2 = 0.45	–	–	–	1.38098	1.37612	1.37125	–	–	–
[2], x2 = 0.5	–	–	–	1.3798	1.37497	1.37013	–	–	–
[2], x2 = 0.55	–	–	–	1.37853	1.37373	1.36892	–	–	–
[2], x2 = 0.6	–	–	–	1.37716	1.37239	1.36762	–	–	–
[2], x2 = 0.65	–	–	–	1.37567	1.37093	1.36621	–	–	–
[2], x2 = 0.7	–	–	–	1.37403	1.36933	1.36466	–	–	–
[2], x2 = 0.75	–	–	–	1.37223	1.36757	1.36295	–	–	–
[2], x2 = 0.8	–	–	–	1.37023	1.36562	1.36106	–	–	–
[2], x2 = 0.85	–	–	–	1.36799	1.36345	1.35896	–	–	–
[2], x2 = 0.9	–	–	–	1.36547	1.36102	1.3566	–	–	–
[2], x2 = 0.95	–	–	–	1.36261	1.35826	1.35396	–	–	–
